Laboratory results as given in US10294202B2, “Pyrrolidinones as herbicides” (FMC Corporation, priority 2013, dated 2019).

Legend:
[1] = system: velvetleaf; test: Test A pre-/postemergence herbicide test; format: in vivo, Abutilon theophrasti
How it was run: (§1)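 Visual injury ratings, 0 = no effect, 100 = complete control, taken ~10 days after treatment against untreated greenhouse controls. Preemergence: directed soil spray onto seeded loam/sand pots. Postemergence: spray onto plants at one- to two-leaf stage, 2–10 cm tall.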

[2] = system: morningglory; test: Test A pre-/postemergence herbicide test; format: in vivo, Ipomoea spp.
How it was run: as §1

[3] = system: crabgrass, large; test: Test A pre-/postemergence herbicide test; format: in vivo, Digitaria sanguinalis
How it was run: as §1

[4] = system: kochia; test: Test A pre-/postemergence herbicide test; format: in vivo, Kochia scoparia
How it was run: as §1

[5] = system: ragweed; test: Test A pre-/postemergence herbicide test; format: in vivo, Ambrosia elatior
How it was run: as §1

[6] = system: galium; test: Test A postemergence herbicide test; format: in vivo, Galium aparine
How it was run: (§2)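 Potted in loam soil/sand blend; postemergence application at 1–2 leaf stage (2–10 cm). Greenhouse ~10 d. Visual injury vs untreated, 0–100 scale; 100 = complete control.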

[7] = system: blackgrass; test: Test A postemergence herbicide test; format: in vivo, Alopecurus myosuroides
How it was run: as §2

[8] = Postemergence, 125 g ai/ha, 0 to 100 scale, 0 no effect, 100 complete control
[9] = Postemergence, 500 g ai/ha, 0 to 100 scale (0 no effect, 100 complete control)
[10] = Preemergence, 125 g ai/ha, visual rating on 0 to 100 scale (0 no effect, 100 complete control)
[11] = preemergence, 500 g ai/ha, 0 to 100 scale
[12] = Postemergence, 125 g ai/ha, visual rating on 0 to 100 scale (0 no effect, 100 complete control), approx. 10 days
[13] = Preemergence, 125 g ai/ha, 0 to 100 scale where 0 is no effect and 100 is complete control
[14] = Preemergence, 500 g ai/ha, visual rating on 0 to 100 scale (0 no effect, 100 complete control)
[15] = 125 g ai/ha, visual rating on 0 to 100 scale (0 no effect, 100 complete control), approx. 10 days
[16] = 500 g ai/ha, 0 to 100 scale (0 no effect, 100 complete control)
[17] = preemergence, 500 g ai/ha, 0 to 100 scale, 0 is no effect and 100 is complete control
[18] = Postemergence, 125 g ai/ha, 0 to 100 scale, 0 is no effect, 100 is complete control
[19] = Postemergence, 1000 g ai/ha, 0 to 100 scale (0 no effect, 100 complete control)
[20] = Preemergence, 1000 g ai/ha, visual rating on 0 to 100 scale (0 no effect, 100 complete control), approx. 10 days

Structure (SMILES) | Plant response rating, Velvetleaf [1, 8] | Plant response rating, Velvetleaf [1, 9] | Velvetleaf plant response rating [1, 10] | Plant response rating, Velvetleaf [1, 11] | Plant response rating, Morningglory [2, 8] | Plant response rating, Morningglory [2, 9] | Morningglory plant response rating [2, 10] | Plant response rating, Morningglory [2, 11] | Plant response rating, Crabgrass, Large [3, 8] | Plant response rating, Crabgrass, Large [3, 9] | Crabgrass, Large plant response rating [3, 10] | Plant response rating, Crabgrass, Large [3, 11] | also measured
O=C1NCC(c2ccc(F)c(C(F)(F)F)c2)C1C(=O)Nc1ccccc1C(F)(F)F (racemic) [Compound 78] | 20 | 60 | 0 | 30 | 0 | 0 | 0 | 0 | 70 | 80 | 90 | 90 | 
O=C1NCC(c2cccc(OC(F)F)c2)C1C(=O)Nc1ccc(F)c(F)c1F (centres unmarked) [Compound 325] |  |  |  |  |  |  |  |  |  |  |  |  | Plant response rating, Kochia [4, 12]: 60; Plant response rating, Kochia [4, 9]: 80; Plant response rating, Kochia [4, 13]: 70; Kochia plant response rating [4, 14]: 80; Plant response rating, Ragweed [5, 12]: 20; Plant response rating, Ragweed [5, 9]: 60; Plant response rating, Ragweed [5, 13]: 30; Ragweed plant response rating [5, 14]: 50; Plant response rating, Galium [6, 15]: 50; Plant response rating, Galium [6, 16]: 60; Plant response rating, Blackgrass [7, 15]: 50; Plant response rating, Blackgrass [7, 16]: 50
O=C1NCC(c2ccc(F)c(C(F)(F)F)c2)C1C(=O)Nc1ccccc1F (racemic) [Compound 76] | 20 | 60 | 0 | 0 | 20 | 40 | 0 | 50 | 90 | 90 | 90 | 90 | 
O=C1NCC(c2ccc(Cl)c(F)c2)C1C(=O)Nc1ccccc1F (centres unmarked) [Compound 53] | 0 | 0 | 0 | 0 | 0 | 0 | 0 | 0 | 80 | 80 | 90 | 90 | 
O=C1NCC(c2ccc(F)c(Cl)c2)C1C(=O)Nc1cccc(F)c1F (centres unmarked) [Compound 59] | 0 | 0 | 0 | 0 | 0 | 0 | 0 | 0 | 70 | 90 | 90 | 90 | 
O=C1NCC(c2cccc(Br)c2)C1C(=O)Nc1cccc(F)c1F (centres unmarked) [Compound 64] | 0 | 30 | 0 | 0 | 0 | 0 | 0 | 0 | 80 | 80 | 80 | 90 | 
O=C1NCC(c2ccc(C(F)(F)F)nc2)C1C(=O)Nc1ccccc1F (racemic) [Compound 262] |  |  |  |  |  | 0 |  |  |  | 80 |  |  | Plant response rating, Velvetleaf [1, 13]: 0; Plant response rating, Velvetleaf [1, 17]: 0; Plant response rating, Morningglory [2, 18]: 0; Plant response rating, Morningglory [2, 13]: 0; Plant response rating, Morningglory [2, 17]: 0; Plant response rating, Crabgrass, Large [3, 18]: 70; Plant response rating, Crabgrass, Large [3, 13]: 90; Plant response rating, Crabgrass, Large [3, 17]: 90
O=C1NCC(c2cccc(Br)c2)C1C(=O)Nc1ccccc1F (centres unmarked) [Compound 66] | 0 | 0 | 0 | 0 | 0 | 0 | 0 | 0 | 80 | 80 | 80 | 90 | 
O=C1NCC(c2ccc(C(F)(F)F)c(F)c2)C1C(=O)Nc1ccccc1F (racemic) [Compound 246] |  | 0 |  |  |  | 0 |  |  |  | 60 |  |  | Plant response rating, Velvetleaf [1, 18]: 0; Plant response rating, Velvetleaf [1, 13]: 0; Plant response rating, Velvetleaf [1, 17]: 0; Plant response rating, Morningglory [2, 18]: 0; Plant response rating, Morningglory [2, 13]: 0; Plant response rating, Morningglory [2, 17]: 0; Plant response rating, Crabgrass, Large [3, 18]: 50; Plant response rating, Crabgrass, Large [3, 13]: 90; Plant response rating, Crabgrass, Large [3, 17]: 90
Cc1ccccc1NC(=O)C1C(=O)NCC1c1cc(F)c(F)c(F)c1 (racemic) [Compound 35] |  |  |  |  |  |  |  |  |  |  |  |  | Plant response rating, Velvetleaf [1, 19]: 0; Plant response rating, Velvetleaf [1, 20]: 0; Plant response rating, Morningglory [2, 19]: 0; Plant response rating, Morningglory [2, 20]: 0; Plant response rating, Crabgrass, Large [3, 19]: 90; Plant response rating, Crabgrass, Large [3, 20]: 90
O=C1NCC(c2ccccc2)C1C(=O)Nc1ccccc1F (racemic) [Compound 81] | 0 | 0 | 0 | 0 | 0 | 0 | 0 | 20 | 50 | 80 | 80 | 90 | 
O=C1NCC(c2cccc(OC(F)(F)F)c2)C1C(=O)Nc1cccc(F)c1F (centres unmarked) [Compound 68] | 20 | 20 | 0 | 0 | 0 | 0 | 0 | 0 | 90 | 90 | 90 | 90 | 
O=C1NCC(c2cccc(C(F)(F)F)c2)C1C(=O)Nc1cccc(F)c1F (centres unmarked) [Compound 241] |  | 20 |  |  |  | 30 |  |  |  | 80 |  |  | Plant response rating, Velvetleaf [1, 18]: 0; Plant response rating, Velvetleaf [1, 13]: 0; Plant response rating, Velvetleaf [1, 17]: 0; Plant response rating, Morningglory [2, 18]: 20; Plant response rating, Morningglory [2, 13]: 0; Plant response rating, Morningglory [2, 17]: 0; Plant response rating, Crabgrass, Large [3, 18]: 70; Plant response rating, Crabgrass, Large [3, 13]: 90; Plant response rating, Crabgrass, Large [3, 17]: 90
O=C1NCC(c2cc(F)c(F)c(F)c2)C1C(=O)Nc1ccccc1C(F)(F)F (racemic) [Compound 33] |  |  |  |  |  |  |  |  |  |  |  |  | Plant response rating, Velvetleaf [1, 19]: 20; Plant response rating, Velvetleaf [1, 20]: 0; Plant response rating, Morningglory [2, 19]: 20; Plant response rating, Crabgrass, Large [3, 19]: 90; Plant response rating, Crabgrass, Large [3, 20]: 90
O=C1NCC(c2cc(F)c(F)c(F)c2)C1C(=O)Nc1ccccc1F (racemic) [Compound 34] |  |  |  |  |  |  |  |  |  |  |  |  | Plant response rating, Velvetleaf [1, 19]: 20; Plant response rating, Velvetleaf [1, 20]: 0; Plant response rating, Morningglory [2, 19]: 20; Plant response rating, Crabgrass, Large [3, 19]: 90; Plant response rating, Crabgrass, Large [3, 20]: 90
O=C1NCC(c2ccc3c(c2)OC(F)(F)O3)C1C(=O)Nc1cccc(F)c1F (centres unmarked) [Compound 62] | 0 | 0 | 0 | 0 | 0 | 0 | 0 | 0 | 80 | 90 | 90 | 90 | 
